# ± gives the expanded uncertainty stated by the source.
# Conditions: Liquid, Ebulliometric method (Recirculating still)
vapor or sublimation pressure (354.25 K) [kPa],vapor or sublimation pressure (337.85 K) [kPa],Structure (SMILES)
101.32 ± 1,–,CC#N [acetonitrile]
–,101.32 ± 1,CO [methanol]

# Source: the NIST ThermoML archive (doi:10.1021/acs.jced.5b00796)
